Reference: patent US20110152267A1, “Compositions and Methods for Treating Hyperproliferative Disorders” (Texas Tech University System, priority 2009, published 2011)

Assays:
Format in all cases: cell-based, human
[1] = system: T98G Glioblastoma multiforme cell line; assay: DIMSCAN cytotoxicity, fenretinide + L-threo-sphinganines 3:1 (Example B6); conditions: 96 h
Description: (§1) Cytotoxicity Assay—Once again, cytotoxicity is determined using the DIMSCAN assay system (R. Proffitt et al., Cytometry 24, 204-213 (1996); T. Frgala et al., Mol Cancer Ther. 6:886-97, 2007). The system employs digital imaging microscopy to quantify viable cells, which selectively accumulate fluorescein diacetate to become brightly fluorescent. The system is capable of measuring cytotoxicity over a 4-5 log dynamic range by quenching the residual fluorescence of dead and dying cells with eosin Y and quantifying the total fluorescence of viable cells using digital thresholding. Measured fluorescence is directly proportionate to the number of viable cells. A comparison of the total fluorescence of a drug-treated cell population to the fluorescence of a similar number of untreated cells yields a survival fraction. In brief, 2000 to 10,000 cells/well (depending on size and growth rates) are replicate plated into 60 wells of a 96-well tissue culture plate in 0.1 mL of whole medium and allowed to attach overnight. Drug(s) are then added in 0.05 mL of whole medium to the final concentrations indicated. Drugs (fenretinide, and various chain length L-threo-sphinganines) were tested both as single agents and in a 3:1 ratio of fenretinide:sphinganine. C18-L-threo-sphinganine, or “safingol,” was also tested and results shown for reference. There are 12 wells treated per drug concentration. Twelve wells receive drug vehicle-only to the appropriate final concentration and serve as controls for the plate. Cells are incubated for 96 hours at 37° C. in ambient air with 5% CO2. Fluorescein diacetate is then added to each well in 0.05 mL media to a final concentration of 8 microgram/mL. Cells are incubated for a further 15 minutes at 37° C. and 0.03 mL of 0.5% eosin Y is added to each well. Total fluorescence of viable cells is then measured by digital imaging microscopy. Results were graphed as the ratio of the fluoresecence of drug-treated wells to non-drug treated control wells (i.e., Survival Fraction). All tests were performed at least twice. Representative results are shown.
(§2) The Combination Index (CI) is a term to describe mathematical modeling of the pharmacologic effects on cytotoxicity (cell death) of two drugs in combination based. Cytotoxic “synergy” is defined as a cell death affect which is greater than would be expected from a simple product of the single agent cytotoxicities alone (i.e. an “additive” effect). By Chou-Talalay analysis, a CI<0.9 on a Fraction Affected (“Fa”, i.e. fraction of cells killed) indicates synergy, with smaller numbers indicating greater synergy; a CI of 0.9-1.1 signifies an additive or near-additive effect; and a CI>1.1 means the drug combination is antagonistic.
Fenretinide and L-threo-sphinganines tested in human Glioblastoma multiforme (brain cancer) cell line, T98G.

[2] = system: U-118 Glioblastoma cell line; assay: DIMSCAN cytotoxicity, fenretinide + L-threo-sphinganines 3:1 (Example B5); design: key to CI (Combination Index): CI<0.9 synergy, 0.9-1.1 additive, >1.1 antagonistic; conditions: U-118 MG, 96 h
Description: as §1, §2
Fenretinide and L-threo-sphinganines tested in human Glioblastoma (brain cancer) cell line, U-118.

[3] = system: A-172 Glioblastoma multiforme cell line; assay: DIMSCAN cytotoxicity, fenretinide + L-threo-sphinganines 3:1 (Example B4); design: key to CI (Combination Index): Chou-Talalay CI: <0.9 synergy, 0.9-1.1 additive, >1.1 antagonism; conditions: 96 h
Description: as §1, §2
Fenretinide and L-threo-sphinganines tested in human Glioblastoma multiforme (brain cancer) cell line, A-172.

[4] = system: SJ-GBM2 Glioblastoma multiforme cell line; assay: DIMSCAN cytotoxicity, fenretinide + L-threo-sphinganines 3:1 (Example B7); design: key to CI (Combination Index): Chou-Talalay CI: <0.9 synergy, 0.9-1.1 additive, >1.1 antagonism; conditions: 96 h
Description: as §1, §2
Fenretinide and L-threo-sphinganines tested in human Glioblastoma multiforme (brain cancer) cell line, SJ-GBM2.

[5] = system: A-549 lung adenocarcinoma cell line; assay: DIMSCAN cytotoxicity, fenretinide + L-threo-sphinganines 3:1 (Example B13); conditions: 96 h
Description: as §1, §2
Fenretinide and L-threo-sphinganines tested in human lung adenocarcinoma (lung cancer) cell line, A-549.

[6] = system: HT-29 colorectal adenocarcinoma cell line; assay: DIMSCAN cytotoxicity, fenretinide + L-threo-sphinganines 3:1 (Example B10); conditions: 96 h
Description: as §1, §2
Fenretinide and L-threo-sphinganines tested in human colorectal adenocarcinoma (colon cancer) cell line, HT-29.

[7] = system: U-266 Multiple Myeloma cell line; assay: DIMSCAN cytotoxicity, fenretinide + L-threo-sphinganines 3:1 (Example B3); conditions: 96 h
Description: as §1, §2
Fenretinide and L-threo-sphinganines tested in human Multiple Myeloma (a cancer of the blood and bone marrow) cell line, U-266.

[8] = system: PANC-1 pancreatic adenocarcinoma cell line; assay: DIMSCAN cytotoxicity, fenretinide + L-threo-sphinganines 3:1 (Example B18)
Description: as §1, §2
Fenretinide and L-threo-sphinganines tested in human pancreatic adenocarcinoma (pancreas cancer) cell line, PANC-1.

[9] = 4-HPR 1.5 μM + L-threo-sphinganine 0.5 μM
[10] = 4-HPR 3 μM + L-threo-sphinganine 1 μM
[11] = 4-HPR 6 μM + L-threo-sphinganine 2 μM
[12] = 4-HPR 9 μM + L-threo-sphinganine 3 μM

Structure (SMILES): CCCCCCCCCCCCCC[C@H](O)[C@@H](N)CO [C17, (2S,3S)-2-amino-1,3-heptadecanediol]
- CI (Combination Index) [1, 9]: 1.7
- Fa (fraction affected) [1, 9]: 0.447
- CI (Combination Index) [1, 10]: 0.3
- Fa (fraction affected) [1, 10]: 0.887
- CI (Combination Index) [1, 11]: 0.3
- Fa (fraction affected) [1, 11]: 0.944
- CI (Combination Index) [1, 12]: 0.2
- Fa (fraction affected) [1, 12]: 0.980
- CI (Combination Index) [2, 9]: 1.7
- Fa (fraction affected) [2, 9]: 0.519
- CI (Combination Index) [2, 10]: 1.8
- Fa (fraction affected) [2, 10]: 0.791
- CI (Combination Index) [2, 11]: 1.5
- Fa (fraction affected) [2, 11]: 0.951
- CI (Combination Index) [2, 12]: 0.7
- Fa (fraction affected) [2, 12]: 0.995
- CI (Combination Index) [3, 9]: 1.4
- Fa (fraction affected) [3, 9]: 0.232
- CI (Combination Index) [3, 10]: 1.4
- Fa (fraction affected) [3, 10]: 0.529
- CI (Combination Index) [3, 11]: 0.2
- Fa (fraction affected) [3, 11]: 0.996
- CI (Combination Index) [3, 12]: >0.1
- Fa (fraction affected) [3, 12]: 1.000
- CI (Combination Index) [4, 9]: 0.5
- Fa (fraction affected) [4, 9]: 0.188
- CI (Combination Index) [4, 10]: 0.5
- Fa (fraction affected) [4, 10]: 0.796
- CI (Combination Index) [4, 11]: 0.7
- Fa (fraction affected) [4, 11]: 0.962
- CI (Combination Index) [4, 12]: 0.7
- Fa (fraction affected) [4, 12]: 0.998
- CI (Combination Index) [5, 9]: 1.6
- Fa (fraction affected) [5, 9]: 0.01
- CI (Combination Index) [5, 10]: 1.5
- Fa (fraction affected) [5, 10]: 0.010
- CI (Combination Index) [5, 11]: 1.0
- Fa (fraction affected) [5, 11]: 0.010
- CI (Combination Index) [5, 12]: 1.1
- Fa (fraction affected) [5, 12]: 0.010
- CI (Combination Index) [6, 9]: 1.1
- Fa (fraction affected) [6, 9]: 0.112
- CI (Combination Index) [6, 10]: 0.8
- Fa (fraction affected) [6, 10]: 0.661
- CI (Combination Index) [6, 11]: 0.6
- Fa (fraction affected) [6, 11]: 0.974
- CI (Combination Index) [6, 12]: 0.5
- Fa (fraction affected) [6, 12]: 0.993
- CI (Combination Index) [7, 9]: 1.3
- Fa (fraction affected) [7, 9]: 0.134
- CI (Combination Index) [7, 10]: 1.5
- Fa (fraction affected) [7, 10]: 0.35
- CI (Combination Index) [7, 11]: 0.9
- Fa (fraction affected) [7, 11]: 0.901
- CI (Combination Index) [7, 12]: 0.4
- Fa (fraction affected) [7, 12]: 0.991
- CI [8, 9]: 1.5
- Fa [8, 9]: 0.171
- CI [8, 10]: 1.7
- Fa [8, 10]: 0.311
- CI [8, 11]: 0.9
- Fa [8, 11]: 0.714
- CI [8, 12]: 0.1
- Fa [8, 12]: 0.990

Structure (SMILES): CCCCCCCCCCCCCCCCCC[C@H](O)[C@@H](N)CO [C21]
- CI (Combination Index) [1, 9]: 1.2
- Fa (fraction affected) [1, 9]: 0.574
- CI (Combination Index) [1, 10]: 1.0
- Fa (fraction affected) [1, 10]: 0.805
- CI (Combination Index) [1, 11]: 1.8
- Fa (fraction affected) [1, 11]: 0.832
- CI (Combination Index) [1, 12]: 0.1
- Fa (fraction affected) [1, 12]: 0.999
- CI (Combination Index) [2, 9]: 1.3
- Fa (fraction affected) [2, 9]: 0.588
- CI (Combination Index) [2, 10]: 1.5
- Fa (fraction affected) [2, 10]: 0.836
- CI (Combination Index) [2, 11]: 0.6
- Fa (fraction affected) [2, 11]: 0.995
- CI (Combination Index) [2, 12]: 0.5
- Fa (fraction affected) [2, 12]: 0.999
- CI (Combination Index) [3, 9]: 8.8
- Fa (fraction affected) [3, 9]: 0.006
- CI (Combination Index) [3, 10]: 1.6
- Fa (fraction affected) [3, 10]: 0.537
- CI (Combination Index) [3, 11]: 0.8
- Fa (fraction affected) [3, 11]: 0.996
- CI (Combination Index) [3, 12]: >0.1
- Fa (fraction affected) [3, 12]: 1.000
- CI (Combination Index) [4, 9]: 1.4
- Fa (fraction affected) [4, 9]: 0.131
- CI (Combination Index) [4, 10]: 1.9
- Fa (fraction affected) [4, 10]: 0.470
- CI (Combination Index) [4, 11]: 2.1
- Fa (fraction affected) [4, 11]: 0.946
- CI (Combination Index) [4, 12]: 2.0
- Fa (fraction affected) [4, 12]: 0.996
- CI (Combination Index) [5, 9]: 0.9
- Fa (fraction affected) [5, 9]: 0.078
- CI (Combination Index) [5, 10]: 2.6
- Fa (fraction affected) [5, 10]: 0.044
- CI (Combination Index) [5, 11]: 0.8
- Fa (fraction affected) [5, 11]: 0.51
- CI (Combination Index) [5, 12]: 0.4
- Fa (fraction affected) [5, 12]: 0.972
- CI (Combination Index) [6, 9]: 1.2
- Fa (fraction affected) [6, 9]: 0.149
- CI (Combination Index) [6, 10]: 1.2
- Fa (fraction affected) [6, 10]: 0.630
- CI (Combination Index) [6, 11]: 1.8
- Fa (fraction affected) [6, 11]: 0.857
- CI (Combination Index) [6, 12]: 2.3
- Fa (fraction affected) [6, 12]: 0.918
- CI (Combination Index) [7, 9]: 1.4
- Fa (fraction affected) [7, 9]: 0.225
- CI (Combination Index) [7, 10]: 1.5
- Fa (fraction affected) [7, 10]: 0.658
- CI (Combination Index) [7, 11]: 0.6
- Fa (fraction affected) [7, 11]: 0.996
- CI (Combination Index) [7, 12]: >0.1
- Fa (fraction affected) [7, 12]: 1
- CI [8, 9]: 2.5
- Fa [8, 9]: 0.111
- CI [8, 10]: 2.9
- Fa [8, 10]: 0.239
- CI [8, 11]: 1.6
- Fa [8, 11]: 0.784
- CI [8, 12]: 0.4
- Fa [8, 12]: 0.994
